{"source": "patent US20140030260A1", "about": "“METHODS AND COMPOSITIONS TO ELIMINATE CHRONIC LYMPHOCYTIC LEUKEMIA AND OTHER HEMATOLOGIC MALIGNANT CELLS IN STROMAL MICROENVIRONMENT FOR CANCER THERAPY” (BOARD OF REGENTS, THE UNIVERSITY OF TEXAS SYSTEM, priority 2010, published 2014)", "key": {"[1]": {"system": "primary leukemia cells (CLL)", "test": "Viability of primary CLL cells cultured alone or with stromal cells, flow cytometry after annexin-V/PI double-staining", "conditions": "for effect on the toxicity of selecticine in CLL cells: patient #17, co-culture with various types of marrow cells, 20 μM selecticine", "experimental": "The cells were then treated with 50 μM selecticine for 2 days, and cell viability was measured by flow cytometry analysis after double-staining with annexin-V and PI.\nThe cells were then treated with 50 or 100 μM selecticine for 2 days. Cell viability was then measured by flow cytometry analysis after double-staining with annexin-V and PI.\nThe cells were then treated with 50 μM selecticine for 2 days. Cell viability was then measured by flow cytometry analysis after double-staining with annexin-V and PI.\nCell viability was then measured by flow cytometry analysis after double-staining with annexin-V and PI.\nCLL cells isolated from two different patients were treated as follow: (1) Control (CLL alone); (2) Selenocystine mixed with the conditioned medium (CM) of stromal cell culture; (3) Medium from stromal cell culture incubated with selenocystine. After an additional 48-h incubation with CLL cells (without stramal), cell viability was measured by flow cytometry analysis after double-staining with annexin-V and PI.\nCLL cells (without stromal) were then incubated for 72 hours with: (1) control medium; (2) 200 μM 2-mercaptoethanol (2ME) alone; (3) 50 μM selenocystine alone; (4) Selecticine-02 (50 μM selenocystine+200 μM 2-mercaptoethanol pre-mixed overnight). Cell viability was measured by flow cytometry analysis after double-staining with annexin-V and PI.\nThe experimental conditions were the same as FIG. 14, except the selenocystine:2ME ration was 5:2 instead of 1:4.\nThe cells were then treated with 50 mM selenocystine for 2 days."}, "[2]": {"system": "EBV-immortalized normal lymphocytes", "test": "Viability of immortalized normal lymphocytes with or without stromal cells, annexin-V/PI flow cytometry", "assay_type": "cell-based", "conditions": "not further specified", "source_text": "The numbers indicate % of viable cells."}, "CLL cells": {"system": "CLL cells", "test": "ROS, cellular thiol and glutathione in CLL cells (mitosox Red, CMFDA)", "assay_type": "cell-based, human", "conditions": "in the presence of stromal cells (HS-5); 50 μM", "source_text": "Mitochondrial ROS levels were stained by mitosox Red (A) and cellular thiol was stained by CMFDA (B)."}}, "note": "Entries after “also recorded” stand apart in the source; their conditions may differ.", "data": [{"smiles": "CCCCS(=N)(=O)CCC(N)C(=O)O", "note": "(stereo not drawn) [BSO, reference compound]", "values": [{"measurement": "effect on the toxicity of selecticine in CLL cells", "setting": "[1]", "result": "enhanced"}]}, {"smiles": "NC(C[SeH])C(=O)O", "note": "(stereo not drawn) [selenocysteine, 3-selenyl-2-aminopropanoic acid]", "values": [{"measurement": "toxicity to normal cells", "setting": "[2]", "result": "low toxicity"}, {"measurement": "toxicity to CLL leukemia cells of the active compound formed by stromal cells", "setting": "[1]; mechanistic studies", "result": "highly toxic"}]}, {"smiles": "NC(C[Se][Se]CC(N)C(=O)O)C(=O)O", "note": "(stereo not drawn) [selenocystine, 2-amino-3-(2-amino-2-carboxy-ethyl)selanylselanyl-propanoic acid]", "values": [{"measurement": "cytotoxic effect on leukemia (CLL) cells", "setting": "[1]; cultured alone / in the absence of stromal cells", "result": "only moderate cytotoxic effect"}, {"measurement": "killing of primary CLL cells (cell viability)", "setting": "[1]; in the presence of bone marrow stromal cells (HS-5), 50 μM, 2 days", "result": "highly potent cytotoxic effect; also recorded: considerable leukemia cell death"}, {"measurement": "toxicity to CLL cells after conversion by stromal factor in stromal conditioned medium", "setting": "[1]; mixed or incubated with stromal cell culture medium, 48-h incubation with CLL cells without stromal cells", "result": "highly toxic"}, {"measurement": "ROS generation in CLL cells (mitochondrial ROS, mitosox Red)", "setting": "CLL cells", "result": "significant increase in ROS production"}]}, {"smiles": "Nc1nc(F)nc2c1ncn2[C@@H]1O[C@H](CO)[C@@H](O)[C@@H]1O", "note": "[F-ara-A, reference compound]", "values": [{"measurement": "effect of stromal cells on the drug's cytotoxicity in CLL cells", "setting": "[1]; patient #10, different types of stromal cells, 50 μM selecticine, 20 μM F-ara-A or 20 μM oxaliplatin, 2 days", "result": "protected"}]}, {"smiles": "CC(=O)N[C@@H](CS)C(=O)O", "note": "[NAC, reference compound]", "values": [{"measurement": "effect on the toxicity of selecticine in CLL cells", "setting": "[1]", "result": "protected"}]}]}
